Measured values: US8623377B2, “Joint-homing peptides and uses thereof” (University of Maryland, Baltimore, priority 2011, dated 2014)

What was measured:
Akt = assay: VEGF-induced signaling in HUVECs, Western blot p-Akt; assay type: cell-based, human; conditions: peptide 10, 50, 100 μg/mL 1 h, then VEGF 10 ng/mL 20 min
Text: (§1) FIG. 6A: HUVECs were stimulated with VEGF and treated with the indicated concentrations of peptides. Phosphorylated ERK1/2 and Akt, as well as total ERK1/2 and Akt, were detected by Western blot analysis. FIG. 6B: Thereafter, p-ERK1/2 and p-Akt were quantified by densitometry, normalized to total ERK1/2 (left) and Akt (right), respectively, and compared with cells in serum-free medium. The results of a representative experiment from a set of three independent experiments are shown. *P<0.05, compared with the positive control.
(§2) HUVECs were grown in F-12K medium in the presence of endothelial cell growth supplement (ECGS) (BD Biosciences) and 15% FBS. Confluent cells were starved in basal medium (without ECGS and FBS) for 6 h. Then the cells were pretreated for 1 h with different concentrations (10, 50, and 100 μg/mL) of a peptide (NQR, ADK, or RGD) in fresh basal medium, followed by treatment with VEGF (10 ng/mL) for another 20 min. The conditional medium was discarded, and the cells were lysed using a lysis buffer containing protease inhibitors and phosphatase inhibitors. The cell lysate was then centrifuged, and the resulting supernatant was used for analysis of signaling molecules using specific antibodies to human pERK1/2, ERK1/2, pAkt, Akt, and GAPDH (Cell Signaling Technology) by Western blot analysis. The intensity of the bands in the gel was quantified by densitometry. The levels of p-ERK1/2 and p-Akt were normalized to total ERK1/2 and Akt, respectively, and compared with cells in serum-free medium.

[1] = test system: HUVECs attachment to vitronectin; assay: Attachment of HUVECs to vitronectin; assay type: cell-based, human; conditions: peptide 30-800 μg/mL, 1 h on vitronectin-coated wells
Experimental: HUVECs were first suspended in F-12K medium containing the indicated concentrations of NQR, AK or RGD peptide and then incubated for 1 h in microtiter wells coated with vitronectin. The number of cells that attached to vitronectin was quantified. The results of three independent experiments are shown. *P<0.05, compared with the baseline control.
The attachment of HUVECs to vitrnectin was quantified as described (37, 38). Microtiter wells were coated overnight at 4° C. with 2 μg/mL of vitronectin (BD Biosciences). These wells were then blocked for 1 h at 37° C. with 10 mg/mL of BSA (Sigma-Aldrich). In parallel, HUVECs (1.5×10^5 cells/mL) suspended in F-12K medium containing 10% FBS were incubated for 15 min at 37° C. with different concentrations (30-800 μg/mL) of NQR, ADK, or RGD peptide. Thereafter, this cell suspension 100 μL/well) was added to the vitronectin-coated wells, followed by incubation at 37° C. for 1 h. After washing, the number of attached cells was determined using crystal violet (Fisher Scientific).

ERK1/2 = assay: VEGF-induced signaling in HUVECs, Western blot p-ERK1/2; assay type: cell-based, human; conditions: peptide 10, 50, 100 μg/mL 1 h, then VEGF 10 ng/mL 20 min
Text: as §1, §2

HUVECs = assay: Endothelial tube (tubule) formation on Matrigel with VEGF; assay type: cell-based, human; conditions: VEGF 10 ng/mL, peptide 0-100 μg/mL
Experimental: FIG. 4A: Draining lymph node leukocytes from arthritic rats were dye-tagged with PKH67 and injected i.v. into arthritic rats. One group of rats was left untreated, and the other groups were treated with ADK or NQR peptide. After 24 hours, the synovium-infiltrating cells (SICs) were harvested from the joints, subjected to cytospin, and analyzed by fluorescence microscopy (left). In parallel, another set of synovium-infiltrating cells were stained with PE-labeled anti-CD3 or anti-CD 11b/c+ antibody and analyzed by flow cytometry (right). FIG. 4B: HUVECs were cultured on Matrigel-coated wells for 24 hours in the presence of VEGF (10 ng/mL) and various concentrations (0-100 μg/mL) of NQR (left), ADK (center), and RGD (right) peptides. The branches of vessel-like tubes were counted. A reprensentative set of results is shown. *P<0.05, compared with the VEGF-alone control.
HUVECs (1×10^4) were cultured in 80 μL/well of growth factor-reduced Matrigel (BD Biosciences) in a 96-well plate in 100 μL/well of F-12K medium (with no supplements). These cells were then treated for 20 h with VEGF (R&D Systems) in the presence or absence of different concentrations of peptides (NQR, ADK, or RGD). Tubule formation was observed under a microscope, quantitated, and photographed.

[2] = test system: human synovial tissue engrafted s.c.; conditions: human synovial tissue engrafted s.c. in SCID mice; cited from earlier work
αvβ3 = target: T1, αvβ3 (Oryctolagus cuniculus, UniProt A0A5F9CTL5+A0A5F9D0E2); conditions: intra-articular injection, rabbits with antigen-induced arthritis; cited from earlier work
T1 construct: host or cells: rabbit joints in vivo (intra-articular injection)
T1 sequence (A0A5F9D0E2 30-1047): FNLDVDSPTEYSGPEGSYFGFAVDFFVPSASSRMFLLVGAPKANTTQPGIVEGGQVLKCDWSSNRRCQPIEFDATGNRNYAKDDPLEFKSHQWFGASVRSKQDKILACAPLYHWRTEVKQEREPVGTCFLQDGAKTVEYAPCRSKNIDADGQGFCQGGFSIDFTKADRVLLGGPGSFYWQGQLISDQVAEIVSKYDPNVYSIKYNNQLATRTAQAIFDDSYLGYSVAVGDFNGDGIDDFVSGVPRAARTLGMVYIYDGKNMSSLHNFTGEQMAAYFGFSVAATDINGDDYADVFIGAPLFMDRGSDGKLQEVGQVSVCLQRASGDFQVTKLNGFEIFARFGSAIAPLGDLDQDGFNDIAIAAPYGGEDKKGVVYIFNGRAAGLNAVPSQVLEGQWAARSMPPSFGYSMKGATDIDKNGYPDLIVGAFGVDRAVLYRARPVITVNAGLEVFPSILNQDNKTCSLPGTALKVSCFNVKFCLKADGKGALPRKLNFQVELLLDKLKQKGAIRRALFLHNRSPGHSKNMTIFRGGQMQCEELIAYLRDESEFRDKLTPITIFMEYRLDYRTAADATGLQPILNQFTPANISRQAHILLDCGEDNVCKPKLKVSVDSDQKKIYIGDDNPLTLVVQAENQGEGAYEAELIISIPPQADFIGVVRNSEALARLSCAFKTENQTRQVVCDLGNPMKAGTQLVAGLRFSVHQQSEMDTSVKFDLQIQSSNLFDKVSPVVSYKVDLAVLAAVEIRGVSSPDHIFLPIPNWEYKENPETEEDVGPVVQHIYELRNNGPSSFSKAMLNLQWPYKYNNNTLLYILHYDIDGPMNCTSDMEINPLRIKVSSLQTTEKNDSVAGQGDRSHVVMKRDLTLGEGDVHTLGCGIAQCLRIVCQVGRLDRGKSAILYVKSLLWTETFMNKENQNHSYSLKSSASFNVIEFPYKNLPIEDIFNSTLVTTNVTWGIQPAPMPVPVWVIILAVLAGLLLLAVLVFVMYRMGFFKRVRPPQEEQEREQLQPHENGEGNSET
T1 sequence (A0A5F9CTL5 1-785): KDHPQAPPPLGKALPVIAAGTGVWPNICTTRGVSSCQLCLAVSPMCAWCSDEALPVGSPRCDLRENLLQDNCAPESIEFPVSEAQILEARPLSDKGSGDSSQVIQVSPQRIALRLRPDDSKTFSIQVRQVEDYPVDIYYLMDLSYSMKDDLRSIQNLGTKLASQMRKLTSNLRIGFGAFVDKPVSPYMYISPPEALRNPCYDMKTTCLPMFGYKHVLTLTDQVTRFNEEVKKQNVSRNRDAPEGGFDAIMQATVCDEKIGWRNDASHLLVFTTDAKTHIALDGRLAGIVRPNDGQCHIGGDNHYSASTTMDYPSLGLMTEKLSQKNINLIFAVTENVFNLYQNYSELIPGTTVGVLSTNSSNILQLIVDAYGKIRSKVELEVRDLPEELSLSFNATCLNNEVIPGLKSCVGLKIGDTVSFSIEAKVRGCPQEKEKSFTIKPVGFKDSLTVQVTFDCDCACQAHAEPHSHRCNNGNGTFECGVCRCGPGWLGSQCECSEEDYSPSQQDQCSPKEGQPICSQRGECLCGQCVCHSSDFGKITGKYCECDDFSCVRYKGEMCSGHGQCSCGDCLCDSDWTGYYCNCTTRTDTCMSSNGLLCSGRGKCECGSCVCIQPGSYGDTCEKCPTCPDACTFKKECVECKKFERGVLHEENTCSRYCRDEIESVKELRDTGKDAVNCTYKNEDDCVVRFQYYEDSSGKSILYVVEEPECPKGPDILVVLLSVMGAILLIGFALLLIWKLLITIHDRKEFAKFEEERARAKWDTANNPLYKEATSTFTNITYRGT

[3] = test system: adjuvant arthritis in Lewis rats; assay: Antiarthritic activity in the adjuvant arthritis (AA) model, arthritic score; assay type: in vivo, Lewis rat
Experimental: FIG. 3A: Group of arthritic Lewis rats (n=4 per group) were injected with a peptide (AD, NQR, or RGD) or PBS i.v. on the days indicated by the arrows either at the onset or just after the onset of arthritis. The its were monitored regularly for the disease severity, presented as “arthritic score”. […] The sections were graded for histopathological features associated with arthritis. B, bone; C, cartilage, JS, joint space; SIC, synovium-infiltrating cells.
The synthetic peptide corresponding to the selected phage-encoded peptide was diluted in PBS and injected i.v. into Lewis rats beginning either at the onset or just after the onset of arthritis after Mtb injection. The peptide was injected to rats on alternate days at a dose of 1 or 2 mg/kg body weight. A total of three or four injections were given to each rat. Control animals received an equal volume of PBS. All rats were graded regularly for clinical signs of arthritis (36). The hind paws of these rats were harvested and processed for histopathological examination.
AA was induced in Lewis rats by immunizing them with 1 mg/rat of heat-killed M. tuberculosis H37Ra (Mtb; Difco) in 200 μL of mineral oil (Sigma-Aldrich) via s.c. injection at the base of the tail. Beginning on day 7 after immunization, the rats were observed regularly for signs of arthritis in the paws. The severity of arthritis was evaluated based on erythema and swelling as described previously. The highest score for each paw was 4, and the total maximum score for each rat was 16. The course of AA in the Lewis rat involved the following phases: incubation (days 0-8), onset (days 9-11), peak (days 15-18), and recovery (days 21-27).

Substance	effect on VEGF-induced pAkt (Akt)	effect on attachment of HUVECs to vitronectin [1]	effect on VEGF-induced pERK (ERK1/2)	effect on endothelial cell tube formation (HUVECs)	homing of peptide [2]	effect on arthritis (αvβ3)	difference in arthritic score versus PBS/ADK ([3]; from day 15 to day 27 (FIG. 3A center))	suppression of the arthritic process ([3]; i.v. injection around the time of onset of arthritis, 1 or 2 mg/kg on alternate days)	down-modulation of arthritis ([3]; injected just after the onset of AA)
CRNADKFPC (Synthetic peptide homing to joint in an animal) [ADK peptide, joint-homing phage-derived synthetic peptide]	had no effect	Neither peptide had any effect	had no effect	had no effect	–	–	–	–	–
CKSTHDRLC [literature peptide homing to human synovial tissue engrafted in SCID mice]	–	–	–	–	homing to the human synovial tissue	–	–	–	–
RGDfV	–	–	–	–	–	reduce clinical arthritis, synovial angiogenesis, and joint damage	–	–	–
RGDfK [RGD peptide, reference compound]	the opposite was observed	significantly inhibited cell attachment	the opposite was observed	inhibited tube formation	–	–	significant	also suppressed arthritis	effective in down-modulating arthritis
